Measurements reported in patent publication US20070155693A1, “Inhibitor of cancer bone metastasis” (ORIENT CANCER THERAPY CO., LTD., priority 2004, published 2007).

What was measured:
[1] = system: non-small cell lung cancer and prostate cancer; settings: clinical data; cited from earlier work
bone metastasis pain = test: Clinical cases: pain from bone metastasis; type: in vivo, human; settings: for generalized bone pain: morphine 240 mg/day, Leuplin hormone therapy, Iressa 250 mg/day
Protocol: (§1) A prostate cancer patient having been diagnosed as ischial bone metastasis received the hormone therapy of Casodex and Leuplin. NITC was started on Jun. 11, 200X. […] On Sep. 18, 200X, severe low back pain and left hip joint and hip (ischial bone metastasis) pains were appeared, so morphine (MS Contin 40 mg/day) was used. From Oct. 29, 200X, Iressa 1T (250 mg/day) was started to use. Two months after the administration of Iressa, as the pains in low back, left hip joint and hip were alleviated, the administration of MS Contin decreased to 20 mg/day.
(§2) From Jul. […] From Aug. 17, 200X, Iressa 1T (250 mg/day) was initiated. […] Currently, Iressa is only temporarily and orally administered as a painkiller, when pain appears.

prostate cancer = test: Clinical cases: prostate cancer markers PSA and PAP; type: in vivo, human; settings: Example 1, prostate cancer and ischial bone metastasis; Iressa added to NITC
Protocol: Abbreviations expressed were based on each general expression way.
as §1, §2

bone metastasis = test: Clinical cases: bone metastasis marker 1CTP; type: in vivo, human; settings: Example 1, prostate cancer and ischial bone metastasis; Iressa added to NITC
Source text: Effects of inhibiting bone metastasis were confirmed by the variation of 1CTP which is a bone metastasis marker. 1CTP has been practically used as a specific marker for bone resorption and there is, for example, 1CTP kit supplied by Orion (Clin. Chem. 39: 635-640, 1993). The kit uses a decalcified human thigh bone, which is degraded and purified in vitro by a purified bacterial collagenase, as an antigen (1CTP), to immunize a rabbit to produce an antibody, and the antigen is labeled with ^125I to make competitive radioimmunoassay (RIA). Its measuring sensitivity is 0.5 ng/ml or less and the measurement is possible to at least 50 ng/ml. Further, the mean value in blood level of 287 cases from 25-year old to 72-year old is 3.00±1.12 ng/ml (average±S.D.). 1CTP in blood has shown abnormal values in various metabolic bone diseases such as bone metastasis and hyperparathyroidism by now, and further has also been recognized to correlate with therapeutic process. The kit to measure 1CTP is a known clinical diagnosis one, and there is a RIA kit, pyridinoline 1CTP “Chugai” manufactured by Chugai Diagnostics Science Co., Ltd. Specifically, it is a radioimmunoassay reagent using ^125I as a label. However, other well known reagents such as enzyme immunoassay reagent using an enzyme labeling and fluorescence immunoassay reagent using a fluorescent substance can of course be applied. […]

Row | Compound | CR (complete remission) [1] | pains in low back, left hip joint and hip (bone metastasis pain; Example 1, two months after the administration of Iressa 250 mg/day) | effect as painkiller compared with morphine (bone metastasis pain; Example 2) | pains after dose reduction (bone metastasis pain; Example 2, Iressa decreased to 250 mg/alternate day and 250 mg/three days) | generalized bone pain (bone metastasis pain; Example 2) | PSA and PAP (prostate cancer markers) (prostate cancer) | 1CTP (bone metastasis marker) (bone metastasis)
1 | COc1cc2ncnc(Nc3ccc(F)c(Cl)c3)c2cc1OCCCN1CCOCC1 [Iressa] | almost nothing | alleviated | stronger effect than morphine | pains disappeared | alleviated significantly | kept decreasing significantly | the increase of 1CTP also terminated, showing a tendency to decrease
2 | CCNC(=O)[C@@H]1CCCN1C(=O)[C@H](CCCNC(=N)N)NC(=O)[C@H](CC(C)C)NC(=O)[C@@H](CC(C)C)NC(=O)[C@H](Cc1ccc(O)cc1)NC(=O)[C@H](CO)NC(=O)[C@H](Cc1c[nH]c2ccccc12)NC(=O)[C@H](Cc1c[nH]cn1)NC(=O)[C@@H]1CCC(=O)N1 [Leuplin] | – | – | – | – | the pain was not weakened | – | –
3 | CN1CC[C@]23c4c5ccc(O)c4O[C@H]2[C@@H](O)C=C[C@H]3[C@H]1C5 [morphine] | – | – | – | – | could not alleviate the pain | – | –
